# From PubChem BioAssay AID328 (DTP/NCI, 2004)
# “And” between values parts separate entries of the source, which are not always exact repeats. Identical values can stand only once. Inconclusive results and toxic doses are left out.
# Tested on: BDF1 mice, P388 leukemia ip, median survival T/C
# Experiment: NCI In Vivo Anticancer Drug Screen. Data for tumor model P388 Leukemia (intraperitoneal) in B6D2F1 (BDF1) mice
# Details: endpoint: median survival time, higher = longer survival
# Method in brief: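 Survival ratio, drug arm over vehicle arm, in mice with a transplanted tumour.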
# [1] = dose: 50.0 mg/kg/injection, schedule: Q01DX009 (ip), vehicle: Klucel (hydroxypropylcellulose) (HPC)
# [2] = dose: 100.0 mg/kg/injection, schedule: Q01DX009 (ip), vehicle: Klucel (hydroxypropylcellulose) (HPC)
# [3] = dose: 200.0 mg/kg/injection, schedule: Q01DX009 (ip), vehicle: Klucel (hydroxypropylcellulose) (HPC)
# [4] = dose: 100.0 mg/kg/injection, schedule: Q04DX003 (ip), vehicle: Klucel (hydroxypropylcellulose) (HPC)
# [5] = dose: 200.0 mg/kg/injection, schedule: Q04DX003 (ip), vehicle: Klucel (hydroxypropylcellulose) (HPC)
# [6] = dose: 400.0 mg/kg/injection, schedule: Q04DX003 (ip), vehicle: Klucel (hydroxypropylcellulose) (HPC)
# [7] = dose: 50.0 mg/kg/injection, schedule: Q01DX009 (ip), vehicle: saline with Tween-80
# [8] = dose: 100.0 mg/kg/injection, schedule: Q01DX009 (ip), vehicle: saline with Tween-80
# [9] = dose: 100.0 mg/kg/injection, schedule: Q04DX003 (ip), vehicle: saline with Tween-80
# [10] = dose: 200.0 mg/kg/injection, schedule: Q01DX009 (ip), vehicle: saline with Tween-80
# [11] = dose: 200.0 mg/kg/injection, schedule: Q04DX003 (ip), vehicle: saline with Tween-80
# [12] = dose: 400.0 mg/kg/injection, schedule: Q04DX003 (ip), vehicle: saline with Tween-80
# [13] = dose: 100.0 mg/kg/injection, schedule: Q04DX003 (ip), vehicle: saline
# [14] = dose: 200.0 mg/kg/injection, schedule: Q04DX003 (ip), vehicle: saline
# [15] = dose: 50.0 mg/kg/injection, schedule: Q01DX009 (ip), vehicle: saline
# [16] = dose: 100.0 mg/kg/injection, schedule: Q01DX009 (ip), vehicle: saline
# [17] = dose: 200.0 mg/kg/injection, schedule: Q01DX009 (ip), vehicle: saline
compound,measurement,setting,value
CC1=CC(O)(C2(O)C=C(C)CC(C)(C)C2)CC(C)(C)C1 (stereo not given),T/C,"dose: 100.0 mg/kg/injection, schedule: Q01DX009 (ip), vehicle: other",94 % of control
same,T/C,"dose: 200.0 mg/kg/injection, schedule: Q01DX009 (ip), vehicle: other",108 % of control
same,T/C,"dose: 400.0 mg/kg/injection, schedule: Q01DX009 (ip), vehicle: other",103 % of control
OCc1cc(Cl)ccc1O,T/C,[1],101 % of control
same,T/C,[2],103 % of control
same,T/C,"dose: 100.0 mg/kg/injection, schedule: Q04DX003 (ip), vehicle: other",100 % of control
same,T/C,"dose: 132.0 mg/kg/injection, schedule: Q04DX003 (ip), vehicle: other",95 % of control
same,T/C,[3],110 % of control
same,T/C,"dose: 300.0 mg/kg/injection, schedule: Q04DX003 (ip), vehicle: other",108 % of control
same,T/C,"dose: 400.0 mg/kg/injection, schedule: Q04DX003 (ip), vehicle: other",109 % of control
CN1CCCC(CC2c3ccccc3Sc3ccccc32)C1 (stereo not given),T/C,"dose: 7.5 mg/kg/injection, schedule: Q01DX010 (ip), vehicle: saline",100 % of control
same,T/C,"dose: 15.0 mg/kg/injection, schedule: Q01DX010 (ip), vehicle: saline",100 % of control
same,T/C,"dose: 30.0 mg/kg/injection, schedule: Q01DX010 (ip), vehicle: saline",100 % of control
same,T/C,"dose: 60.0 mg/kg/injection, schedule: Q01DX010 (ip), vehicle: saline",109 % of control
CC(=O)Nc1ccc(Cl)cc1C(=O)O,T/C,[4],91 % of control
same,T/C,[5],95 % of control
same,T/C,[6],100 % of control
COC1CC(OS(=O)(=O)c2ccc(C)cc2)C(O)C(C)O1 (stereo not given),T/C,[7],98 % of control and 97 % of control
same,T/C,[8],100 % of control and 109 % of control
same,T/C,[9],99 % of control
same,T/C,[10],96 % of control and 103 % of control
same,T/C,[11],97 % of control
same,T/C,[12],96 % of control
CC1(C)N=C(N)N=C(N)N1c1cccc(OCCOc2cccc(NC(=O)CBr)c2)c1,T/C,"dose: 5.0 mg/kg/injection, schedule: Q01DX009 (ip), vehicle: saline",90 % of control and 100 % of control
same,T/C,"dose: 5.0 mg/kg/injection, schedule: Q04DX003 (ip), vehicle: saline",100 % of control
same,T/C,"dose: 10.0 mg/kg/injection, schedule: Q01DX009 (ip), vehicle: saline",95 % of control and 100 % of control
same,T/C,"dose: 10.0 mg/kg/injection, schedule: Q04DX003 (ip), vehicle: saline",100 % of control
same,T/C,"dose: 13.0 mg/kg/injection, schedule: Q01DX009 (ip), vehicle: saline",104 % of control and 110 % of control
same,T/C,"dose: 20.0 mg/kg/injection, schedule: Q04DX003 (ip), vehicle: saline",100 % of control
same,T/C,"dose: 45.0 mg/kg/injection, schedule: Q01DX009 (ip), vehicle: saline",100 % of control
COC(=O)[C@@H]1[C@@H](O)[C@H](OC(=O)c2cc(OC)c(OC)c(OC)c2)C[C@@H]2CN3CCc4c([nH]c5ccccc45)[C@H]3C[C@@H]21,T/C,"dose: 1.56 mg/kg/injection, schedule: Q01DX009 (ip), vehicle: saline with Tween-80",90 % of control
same,T/C,"dose: 2.0 mg/kg/injection, schedule: Q01DX009 (ip), vehicle: Klucel (hydroxypropylcellulose) (HPC)",100 % of control
same,T/C,"dose: 3.13 mg/kg/injection, schedule: Q01DX009 (ip), vehicle: saline with Tween-80",90 % of control
same,T/C,"dose: 4.0 mg/kg/injection, schedule: Q01DX009 (ip), vehicle: Klucel (hydroxypropylcellulose) (HPC)",100 % of control
same,T/C,"dose: 6.25 mg/kg/injection, schedule: Q01DX009 (ip), vehicle: saline with Tween-80",86 % of control
same,T/C,"dose: 8.0 mg/kg/injection, schedule: Q01DX009 (ip), vehicle: Klucel (hydroxypropylcellulose) (HPC)",100 % of control
same,T/C,"dose: 16.0 mg/kg/injection, schedule: Q01DX009 (ip), vehicle: Klucel (hydroxypropylcellulose) (HPC)",100 % of control
O=C(OC1COC(n2c(=O)oc3ccc(F)cc32)C(OC(=O)c2ccccc2)C1OC(=O)c1ccccc1)c1ccccc1 (stereo not given),T/C,[2],104 % of control
same,T/C,[4],113 % of control
same,T/C,[3],100 % of control
same,T/C,[5],100 % of control
same,T/C,"dose: 400.0 mg/kg/injection, schedule: Q01DX009 (ip), vehicle: Klucel (hydroxypropylcellulose) (HPC)",90 % of control
same,T/C,[6],95 % of control
CCC1CC2CC(c3cc4c(cc3OC)N(C)C3C(O)(C(=O)OC)C(OC(C)=O)C5(CC)C=CCN6CCC43C65)c3[nH]c4ccccc4c3CCN(C1)C2 (stereo not given),T/C,"dose: 0.03 mg/kg/injection, schedule: Q01DX009 (ip), vehicle: water",181 % of control
same,T/C,"dose: 0.06 mg/kg/injection, schedule: Q01DX009 (ip), vehicle: water",100 % of control
same,T/C,"dose: 0.12 mg/kg/injection, schedule: Q01DX009 (ip), vehicle: water",100 % of control
same,T/C,"dose: 0.25 mg/kg/injection, schedule: Q01DX009 (ip), vehicle: water",90 % of control and 95 % of control
same,T/C,"dose: 0.25 mg/kg/injection, schedule: Q04DX003 (ip), vehicle: water",90 % of control
same,T/C,"dose: 0.5 mg/kg/injection, schedule: Q01DX009 (ip), vehicle: water",100 % of control and 104 % of control
same,T/C,"dose: 0.5 mg/kg/injection, schedule: Q04DX003 (ip), vehicle: water",95 % of control
same,T/C,"dose: 1.0 mg/kg/injection, schedule: Q01DX009 (ip), vehicle: water",109 % of control
same,T/C,"dose: 1.0 mg/kg/injection, schedule: Q04DX003 (ip), vehicle: water",95 % of control
same,T/C,"dose: 2.0 mg/kg/injection, schedule: Q01DX009 (ip), vehicle: water",104 % of control
same,T/C,"dose: 4.0 mg/kg/injection, schedule: Q04DX003 (ip), vehicle: water",95 % of control
same,T/C,"dose: 6.0 mg/kg/injection, schedule: Q04DX003 (ip), vehicle: water",90 % of control
same,T/C,"dose: 5.0 micrograms/kg/injection, schedule: Q01DX009 (ip), vehicle: water",104 % of control
same,T/C,"dose: 10.0 micrograms/kg/injection, schedule: Q01DX009 (ip), vehicle: water",102 % of control
same,T/C,"dose: 20.0 micrograms/kg/injection, schedule: Q01DX009 (ip), vehicle: water",90 % of control
same,T/C,"dose: 40.0 micrograms/kg/injection, schedule: Q01DX009 (ip), vehicle: water",100 % of control
same,T/C,"dose: 80.0 micrograms/kg/injection, schedule: Q01DX009 (ip), vehicle: water",92 % of control
COc1cc2c(cc1OC)C(c1c(-c3c(Cl)cccc3Cl)noc1C)=NCC2,T/C,[7],99 % of control
same,T/C,[8],92 % of control
same,T/C,[10],106 % of control
CC(=O)Nc1ccc2ccc(Cl)nc2n1,T/C,[13],95 % of control
same,T/C,[14],100 % of control
same,T/C,"dose: 400.0 mg/kg/injection, schedule: Q04DX003 (ip), vehicle: saline",104 % of control
O=C1NC(=O)C(Cc2ccccc2)(c2ccccc2)N1 (stereo not given),T/C,"dose: 75.0 mg/kg/injection, schedule: Q01DX009 (ip), vehicle: saline with Tween-80",97 % of control
same,T/C,"dose: 150.0 mg/kg/injection, schedule: Q01DX009 (ip), vehicle: saline with Tween-80",100 % of control
FC(F)(F)c1nc2nccnc2[nH]1,T/C,[15],100 % of control
same,T/C,[16],100 % of control
same,T/C,[17],108 % of control
same,T/C,[5],88 % of control
Cc1cc(-c2ccc(NC(=O)c3cccc([N+](=O)[O-])c3)c(C)c2)ccc1NC(=O)c1cccc([N+](=O)[O-])c1,T/C,"dose: 50.0 mg/kg/injection, schedule: Q01DX005 (ip), vehicle: saline with Tween-80",96 % of control
same,T/C,"dose: 100.0 mg/kg/injection, schedule: Q01DX005 (ip), vehicle: saline with Tween-80",94 % of control
same,T/C,"dose: 200.0 mg/kg/injection, schedule: Q01DX005 (ip), vehicle: saline with Tween-80",105 % of control
Cc1nc2ccccc2nc1CC(=O)c1ccccc1,T/C,[7],112 % of control
same,T/C,[8],104 % of control
same,T/C,[10],99 % of control
O=c1oc2c3ccccc3c3ccccc3c2o1,T/C,"dose: 25.0 mg/kg/injection, schedule: Q01DX009 (ip), vehicle: Klucel (hydroxypropylcellulose) (HPC)",117 % of control
same,T/C,[1],115 % of control
same,T/C,[2],114 % of control
CCC(C)(C)C(=O)O,T/C,[15],100 % of control
same,T/C,"dose: 50.0 mg/kg/injection, schedule: Q04DX003 (ip), vehicle: saline",100 % of control
same,T/C,[16],105 % of control
same,T/C,[9],105 % of control
same,T/C,[13],104 % of control
same,T/C,[17],110 % of control
same,T/C,[11],110 % of control
same,T/C,[14],100 % of control
same,T/C,[12],100 % of control
